Measurements as given in the kinase profiling compilation of Christmann-Franck et al. (2016).
Where “and” joins values, the source holds several entries; their conditions need not be identical. Equal entries are not always repeated.

Experiments:
Experiment in all cases: radiometric filter-binding kinase assay, Kinase HotSpot
Conditions in all cases: compound 0.5 µM; ATP 10 µM
FYN (human) = FYN (human) (UniProt P06241)
DDR2 (human) = DDR2 (human) (UniProt Q16832)
GSK3B (human) = GSK3B (human) (UniProt P49841)
EPHB3 (human) = EPHB3 (human) (UniProt P54753)
EPHB2 (human) = EPHB2 (human) (UniProt P29323)
MAP3K11 (human) = MAP3K11 (human) (UniProt Q16584)
MAP2K2 (human) = MAP2K2 (human) (UniProt P36507)
AKT1 (human) = AKT1 (human) (UniProt P31749)
BRSK2 (human) = BRSK2 (human) (UniProt Q8IWQ3)
ALK (human) = ALK (human) (UniProt Q9UM73)
LRRK2 (human) = LRRK2 (human) (UniProt Q5S007)
CSNK1A1 (human) = CSNK1A1 (human) (UniProt P48729)
MARK4 (human) = MARK4 (human) (UniProt Q96L34)
MAPK14 (human) = MAPK14 (human) (UniProt Q16539)
FGFR4 (human) = FGFR4 (human) (UniProt P22455)
PRKD3 (human) = PRKD3 (human) (UniProt O94806)
CDK3 CCNE1 (human) = CDK3 CCNE1 (human) (UniProt Q00526+P24864)
PASK (human) = PASK (human) (UniProt Q96RG2)
BLK (human) = BLK (human) (UniProt P51451)
ACVRL1 (human) = ACVRL1 (human) (UniProt P37023)
LYN (human) = LYN (human) (UniProt P07948)
PRKG2 (human) = PRKG2 (human) (UniProt Q13237)
PDGFRA (human) = PDGFRA (human) (UniProt P16234)
RPS6KA5 KD2 (human) = RPS6KA5 KD2 (human) (UniProt O75582)
CDK6 CCND3 (human) = CDK6 CCND3 (human) (UniProt P30281+Q00534)
PDPK1 (human) = PDPK1 (human) (UniProt O15530)
MAPKAPK5 (human) = MAPKAPK5 (human) (UniProt Q8IW41)
IRAK1 (human) = IRAK1 (human) (UniProt P51617)
BRSK1 (human) = BRSK1 (human) (UniProt Q8TDC3)
NTRK1 (human) = NTRK1 (human) (UniProt P04629)
CDC42BPA (human) = CDC42BPA (human) (UniProt Q5VT25)
NEK1 (human) = NEK1 (human) (UniProt Q96PY6)
LTK (human) = LTK (human) (UniProt P29376)
PKN1 (human) = PKN1 (human) (UniProt Q16512)
WNK3 (human) = WNK3 (human) (UniProt Q9BYP7)
PIM1 (human) = PIM1 (human) (UniProt P11309)
DYRK1A (human) = DYRK1A (human) (UniProt Q13627)
MAP4K4 (human) = MAP4K4 (human) (UniProt O95819)
MAP3K10 (human) = MAP3K10 (human) (UniProt Q02779)
RPS6KB1 (human) = RPS6KB1 (human) (UniProt P23443)
STK3 (human) = STK3 (human) (UniProt Q13188)
EPHA1 (human) = EPHA1 (human) (UniProt P21709)

LYN (human), sequence (P07948 whole entry, looked up): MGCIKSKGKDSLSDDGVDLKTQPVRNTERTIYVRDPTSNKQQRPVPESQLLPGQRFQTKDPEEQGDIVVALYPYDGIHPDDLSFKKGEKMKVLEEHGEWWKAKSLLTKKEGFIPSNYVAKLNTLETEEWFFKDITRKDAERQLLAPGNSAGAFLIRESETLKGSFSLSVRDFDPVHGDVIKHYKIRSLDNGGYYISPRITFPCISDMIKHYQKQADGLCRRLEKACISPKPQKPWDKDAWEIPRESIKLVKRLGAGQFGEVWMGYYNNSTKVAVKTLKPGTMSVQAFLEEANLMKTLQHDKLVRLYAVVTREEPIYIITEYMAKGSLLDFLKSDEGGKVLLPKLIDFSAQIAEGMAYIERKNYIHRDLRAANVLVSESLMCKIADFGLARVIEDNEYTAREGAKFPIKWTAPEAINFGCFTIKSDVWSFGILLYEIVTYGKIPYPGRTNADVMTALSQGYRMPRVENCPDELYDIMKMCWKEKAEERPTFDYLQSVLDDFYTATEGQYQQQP
CDK3 CCNE1 (human), sequence (P24864 whole entry, looked up): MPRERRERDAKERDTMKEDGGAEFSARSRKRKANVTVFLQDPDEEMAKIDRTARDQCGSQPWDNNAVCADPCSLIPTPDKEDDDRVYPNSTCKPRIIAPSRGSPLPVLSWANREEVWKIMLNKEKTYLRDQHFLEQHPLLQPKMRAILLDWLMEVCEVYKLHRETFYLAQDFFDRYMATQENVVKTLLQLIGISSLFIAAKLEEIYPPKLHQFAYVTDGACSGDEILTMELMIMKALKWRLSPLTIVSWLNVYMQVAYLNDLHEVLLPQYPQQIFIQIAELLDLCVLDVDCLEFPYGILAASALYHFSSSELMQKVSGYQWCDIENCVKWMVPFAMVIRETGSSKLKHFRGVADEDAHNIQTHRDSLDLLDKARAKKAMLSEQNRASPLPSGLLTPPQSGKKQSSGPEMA
CDK3 CCNE1 (human), sequence (Q00526 whole entry, looked up): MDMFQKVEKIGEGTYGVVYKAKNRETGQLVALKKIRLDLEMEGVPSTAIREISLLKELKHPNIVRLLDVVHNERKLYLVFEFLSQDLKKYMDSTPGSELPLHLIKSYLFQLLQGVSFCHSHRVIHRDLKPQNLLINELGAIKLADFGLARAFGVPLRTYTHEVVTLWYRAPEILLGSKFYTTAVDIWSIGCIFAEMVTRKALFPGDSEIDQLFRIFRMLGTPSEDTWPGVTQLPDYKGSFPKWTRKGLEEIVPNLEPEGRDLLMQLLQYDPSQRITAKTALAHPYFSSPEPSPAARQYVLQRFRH
MAPKAPK5 (human), sequence (Q8IW41 whole entry, looked up): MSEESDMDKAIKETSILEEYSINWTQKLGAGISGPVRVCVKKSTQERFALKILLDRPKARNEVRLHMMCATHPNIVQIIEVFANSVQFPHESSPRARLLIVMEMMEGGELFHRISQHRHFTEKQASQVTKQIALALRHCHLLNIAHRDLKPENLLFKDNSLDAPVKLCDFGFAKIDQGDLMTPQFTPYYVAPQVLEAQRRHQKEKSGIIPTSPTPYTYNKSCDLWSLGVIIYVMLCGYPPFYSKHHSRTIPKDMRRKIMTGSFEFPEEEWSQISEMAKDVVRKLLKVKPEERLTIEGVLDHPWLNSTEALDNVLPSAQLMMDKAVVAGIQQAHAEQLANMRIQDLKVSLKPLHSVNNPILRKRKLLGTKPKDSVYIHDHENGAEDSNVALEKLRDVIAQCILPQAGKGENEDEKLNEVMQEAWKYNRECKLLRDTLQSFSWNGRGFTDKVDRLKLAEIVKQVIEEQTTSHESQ
MAP3K10 (human), sequence (Q02779 whole entry, looked up): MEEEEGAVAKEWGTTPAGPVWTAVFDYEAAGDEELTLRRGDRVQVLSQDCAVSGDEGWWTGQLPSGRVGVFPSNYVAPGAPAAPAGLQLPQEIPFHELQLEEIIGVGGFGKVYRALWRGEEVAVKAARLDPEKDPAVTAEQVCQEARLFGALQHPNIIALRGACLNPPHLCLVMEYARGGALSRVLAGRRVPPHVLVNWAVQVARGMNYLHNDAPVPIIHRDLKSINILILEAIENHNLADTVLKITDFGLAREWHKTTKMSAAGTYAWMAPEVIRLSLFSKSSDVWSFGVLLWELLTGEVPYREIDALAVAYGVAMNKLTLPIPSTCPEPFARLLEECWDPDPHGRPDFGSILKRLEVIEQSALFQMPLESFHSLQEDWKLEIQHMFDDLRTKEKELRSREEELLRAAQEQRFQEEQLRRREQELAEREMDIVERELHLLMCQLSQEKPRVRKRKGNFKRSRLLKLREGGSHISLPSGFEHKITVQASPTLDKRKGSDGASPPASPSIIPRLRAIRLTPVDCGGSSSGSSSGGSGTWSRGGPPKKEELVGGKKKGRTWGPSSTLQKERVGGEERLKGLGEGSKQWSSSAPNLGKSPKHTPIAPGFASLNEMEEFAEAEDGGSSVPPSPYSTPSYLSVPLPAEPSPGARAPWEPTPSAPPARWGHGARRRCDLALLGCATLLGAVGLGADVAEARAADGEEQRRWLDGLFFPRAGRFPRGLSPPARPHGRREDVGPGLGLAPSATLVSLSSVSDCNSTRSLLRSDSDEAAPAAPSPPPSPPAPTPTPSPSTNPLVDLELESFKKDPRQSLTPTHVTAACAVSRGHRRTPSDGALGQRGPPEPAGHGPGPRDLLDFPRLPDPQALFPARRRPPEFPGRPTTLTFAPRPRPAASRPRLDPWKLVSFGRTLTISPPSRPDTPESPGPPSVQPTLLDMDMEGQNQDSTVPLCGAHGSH
ALK (human), sequence (Q9UM73 whole entry, looked up): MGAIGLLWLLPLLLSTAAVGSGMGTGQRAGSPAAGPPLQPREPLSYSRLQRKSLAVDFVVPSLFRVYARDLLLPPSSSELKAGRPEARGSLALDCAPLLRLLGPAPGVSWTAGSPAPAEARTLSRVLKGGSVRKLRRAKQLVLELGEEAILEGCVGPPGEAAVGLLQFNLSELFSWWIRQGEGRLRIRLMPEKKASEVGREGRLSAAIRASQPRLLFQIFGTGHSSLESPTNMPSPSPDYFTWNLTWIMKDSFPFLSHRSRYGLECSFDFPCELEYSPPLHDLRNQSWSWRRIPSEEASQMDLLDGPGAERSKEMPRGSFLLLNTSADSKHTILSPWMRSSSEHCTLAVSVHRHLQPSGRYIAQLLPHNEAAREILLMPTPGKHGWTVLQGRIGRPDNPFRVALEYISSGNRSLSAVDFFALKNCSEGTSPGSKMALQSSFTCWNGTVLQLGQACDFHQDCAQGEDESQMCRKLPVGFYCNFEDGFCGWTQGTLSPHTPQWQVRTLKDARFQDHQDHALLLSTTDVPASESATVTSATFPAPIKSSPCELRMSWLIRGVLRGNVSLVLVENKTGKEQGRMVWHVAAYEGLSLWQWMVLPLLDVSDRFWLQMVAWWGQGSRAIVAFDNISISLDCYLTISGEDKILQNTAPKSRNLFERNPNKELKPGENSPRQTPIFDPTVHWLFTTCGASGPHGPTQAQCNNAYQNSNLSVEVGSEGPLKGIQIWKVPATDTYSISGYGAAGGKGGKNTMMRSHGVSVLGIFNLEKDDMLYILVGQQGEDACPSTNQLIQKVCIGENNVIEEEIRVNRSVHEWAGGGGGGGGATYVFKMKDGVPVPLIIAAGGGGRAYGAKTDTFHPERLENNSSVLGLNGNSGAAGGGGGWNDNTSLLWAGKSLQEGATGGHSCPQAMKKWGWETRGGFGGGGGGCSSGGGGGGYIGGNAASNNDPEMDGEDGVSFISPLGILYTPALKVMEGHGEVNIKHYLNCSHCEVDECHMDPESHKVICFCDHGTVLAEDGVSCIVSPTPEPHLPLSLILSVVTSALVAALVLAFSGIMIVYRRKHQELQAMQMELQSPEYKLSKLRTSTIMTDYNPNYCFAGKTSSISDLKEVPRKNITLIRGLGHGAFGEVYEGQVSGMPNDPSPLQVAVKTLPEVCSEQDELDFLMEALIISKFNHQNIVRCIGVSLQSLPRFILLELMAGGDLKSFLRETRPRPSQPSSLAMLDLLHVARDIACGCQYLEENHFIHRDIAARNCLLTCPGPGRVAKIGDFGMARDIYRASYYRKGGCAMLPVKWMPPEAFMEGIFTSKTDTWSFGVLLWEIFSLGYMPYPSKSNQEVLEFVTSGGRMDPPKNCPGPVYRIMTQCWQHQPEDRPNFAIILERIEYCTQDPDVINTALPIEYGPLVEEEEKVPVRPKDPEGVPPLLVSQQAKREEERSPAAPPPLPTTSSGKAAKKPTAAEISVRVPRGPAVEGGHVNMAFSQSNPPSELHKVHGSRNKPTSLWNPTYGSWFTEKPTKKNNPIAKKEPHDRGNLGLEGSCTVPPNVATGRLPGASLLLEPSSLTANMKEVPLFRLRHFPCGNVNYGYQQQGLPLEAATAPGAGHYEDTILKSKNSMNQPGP
ACVRL1 (human), sequence (P37023 whole entry, looked up): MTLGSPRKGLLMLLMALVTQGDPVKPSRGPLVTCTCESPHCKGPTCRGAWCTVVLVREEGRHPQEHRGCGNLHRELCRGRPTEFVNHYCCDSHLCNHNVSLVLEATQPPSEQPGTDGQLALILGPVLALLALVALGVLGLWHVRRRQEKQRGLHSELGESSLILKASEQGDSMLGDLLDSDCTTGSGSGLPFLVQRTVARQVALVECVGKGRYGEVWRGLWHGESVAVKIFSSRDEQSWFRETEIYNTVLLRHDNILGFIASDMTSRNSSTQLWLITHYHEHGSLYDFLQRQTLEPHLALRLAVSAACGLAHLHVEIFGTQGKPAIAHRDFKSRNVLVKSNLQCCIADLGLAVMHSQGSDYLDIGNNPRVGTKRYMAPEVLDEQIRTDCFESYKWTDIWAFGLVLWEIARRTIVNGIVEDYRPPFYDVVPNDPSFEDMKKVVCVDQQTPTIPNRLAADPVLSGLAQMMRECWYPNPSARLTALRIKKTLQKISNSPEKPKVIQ

Cn1nc2c3c(cccc31)C(=O)c1ccccc1-2
residual activity (FYN (human)): 93.8% | residual activity (DDR2 (human)): 95.1% | residual activity (GSK3B (human)): 94% | residual activity (EPHB3 (human)): 85.5% | residual activity (EPHB2 (human)): 104% | residual activity (MAP3K11 (human)): 97.2% | residual activity (MAP2K2 (human)): 102% | residual activity (AKT1 (human)): 99.1% | residual activity (BRSK2 (human)): 96.4% | residual activity (ALK (human)): 87.4% | residual activity (LRRK2 (human)): 55.9% | residual activity (CSNK1A1 (human)): 47.8% | residual activity (MARK4 (human)): 91.1% | residual activity (MAPK14 (human)): 93.6% | residual activity (FGFR4 (human)): 108% | residual activity (PRKD3 (human)): 65.5% | residual activity (CDK3 CCNE1 (human)): 87.5% | residual activity (PASK (human)): 94.6% | residual activity (BLK (human)): 106% | residual activity (ACVRL1 (human)): 102% | residual activity (LYN (human)): 96.1% and 97.7% | residual activity (PRKG2 (human)): 105% | residual activity (PDGFRA (human)): 97.6% | residual activity (RPS6KA5 KD2 (human)): 100% | residual activity (CDK6 CCND3 (human)): 101% | residual activity (PDPK1 (human)): 94.5% | residual activity (MAPKAPK5 (human)): 94.5% | residual activity (IRAK1 (human)): 99.6% | residual activity (BRSK1 (human)): 92.5% | residual activity (NTRK1 (human)): 95% | residual activity (CDC42BPA (human)): 106% | residual activity (NEK1 (human)): 78.3% | residual activity (LTK (human)): 86.7% | residual activity (PKN1 (human)): 101% | residual activity (WNK3 (human)): 92% | residual activity (PIM1 (human)): 80.3% | residual activity (DYRK1A (human)): 94.1% | residual activity (MAP4K4 (human)): 85.1% | residual activity (MAP3K10 (human)): 91.4% | residual activity (RPS6KB1 (human)): 96.3% | residual activity (STK3 (human)): 88.4% | residual activity (EPHA1 (human)): 94.8%
